In US20240173334A1, “Oral (17-ß)-3-Oxoandrost-4-EN-17-YL Tridecanoate Therapy” (Lipocine Inc., priority 2018, published 2024):

Tests used:
[1] = ascending multiple-dose steady-state PK of undecanoate in dosage form B1 in hypogonadal males (Example 6); type: in vivo, human (adult hypogonadal male subjects)
Protocol: A single-center, randomized, double-blind, placebo-controlled, ascending multiple-dose, serial-group study was conducted to evaluate the safety, tolerability, and the steady-state PK parameters of an oral composition comprising substantially noncrystalline form of (17-ß)-3-oxoandrost-4-en-17-yl undecanoate in adult hypogonadal male subjects (N=84). The treatments were following as: • Treatment A: 75 mg of (17-ß)-3-oxoandrost-4-en-17-yl undecanoate as androst-4-en-17β-ol-3-one ester based on dosage form B1 in BID. • Treatment B: 150 mg of (17-ß)-3-oxoandrost-4-en-17-yl undecanoate as androst-4-en-17β-ol-3-one ester based on dosage form B1 in BID. • Treatment C: 225 mg of (17-ß)-3-oxoandrost-4-en-17-yl undecanoate as androst-4-en-17β-ol-3-one ester based on dosage form B1 in BID. • Treatment D: 300 mg of (17-ß)-3-oxoandrost-4-en-17-yl undecanoate as androst-4-en-17β-ol-3-one ester based on dosage form B1 in BID. • Treatment E: placebo capsules in BID
(§1) The steady state PK parameters were obtained post the treatment initiation.

[2] = multiple-dose steady-state PK of dosage form B7 in hypogonadal males (Example 5); type: in vivo, human (hypogonadal males)
Protocol: A multi-center, open-label, randomized, 4-treatment arm, multiple-dose study was performed to evaluate the safety, tolerability, and the steady-state PK parameters of the oral composition comprising substantially noncrystalline form of (17-ß)-3-oxoandrost-4-en-17-yl tridecanoate (dosage form B7) in hypogonadal males (N=48). The treatments were following as: • Treatment A: 500 mg of (17-ß)-3-oxoandrost-4-en-17-yl tridecanoate as androst-4-en-17β-ol-3-one ester in dosage form B7 in QD. • Treatment B: 750 mg of (17-ß)-3-oxoandrost-4-en-17-yl tridecanoate as androst-4-en-17β-ol-3-one ester in dosage form B7 in QD. • Treatment C: 1000 mg of (17-ß)-3-oxoandrost-4-en-17-yl tridecanoate as androst-4-en-17β-ol-3-one ester in dosage form B7 in QD. • Treatment D: 1250 mg of (17-ß)-3-oxoandrost-4-en-17-yl tridecanoate as androst-4-en-17β-ol-3-one ester in dosage form B7 in QD.
as §1
The evaluation of the relation between Cavg or Cmax and dose amount of (17-ß)-3-oxoandrost-4-en-17-yl tridecanoate was performed using the group mean values of Cavg and Cmax of androst-4-en-17β-ol-3-one obtained at the steady state.

[3] = 75 mg BID, dosage form B1, N=16
[4] = 150 mg BID, dosage form B1, N=16
[5] = 225 mg BID, dosage form B1, N=16
[6] = 300 mg BID, dosage form B1, N=9
[7] = 500 mg QD, dosage form B7, N=12
[8] = 750 mg QD, dosage form B7, N=11
[9] = 1000 mg QD, dosage form B7, N=12
[10] = 1250 mg QD, dosage form B7, N=12

Structure (SMILES): CCCCCCCCCCC(=O)O[C@H]1CC[C@H]2[C@@H]3CCC4=CC(=O)CC[C@]4(C)[C@H]3CC[C@]12C [(17-ß)-3-oxoandrost-4-en-17-yl undecanoate]
- Cavg of androst-4-en-17β-ol-3-one, mean (±SD) [1, 3]: 270 (94) ng/dL
- Cmax of androst-4-en-17β-ol-3-one, mean (±SD) [1, 3]: 544 (169) ng/dL
- Cavg of androst-4-en-17β-ol-3-one, mean (±SD) [1, 4]: 319 (77) ng/dL
- Cmax of androst-4-en-17β-ol-3-one, mean (±SD) [1, 4]: 792 (276) ng/dL
- Cavg of androst-4-en-17β-ol-3-one, mean (±SD) [1, 5]: 446 (161) ng/dL
- Cmax of androst-4-en-17β-ol-3-one, mean (±SD) [1, 5]: 1169 (356) ng/dL
- Cavg of androst-4-en-17β-ol-3-one, mean (±SD) [1, 6]: 582 (184) ng/dL
- Cmax of androst-4-en-17β-ol-3-one, mean (±SD) [1, 6]: 1644 (644) ng/dL

Structure (SMILES): CCCCCCCCCCCCC(=O)O[C@H]1CC[C@H]2[C@@H]3CCC4=CC(=O)CC[C@]4(C)[C@H]3CC[C@]12C [[(8R,9S,10R,13S,14S,17S)-10,13-dimethyl-3-oxo-1,2,6,7,8,9,11,12,14,15,16,17-dodecahydrocyclopenta[a]phenanthren-17-yl] tridecanoate]
- Cavg of androst-4-en-17β-ol-3-one, mean (±SD) [2, 7]: 307 (157) ng/dL
- Cmax of androst-4-en-17β-ol-3-one, mean (±SD) [2, 7]: 608 (318) ng/dL
- Cavg of androst-4-en-17β-ol-3-one, mean (±SD) [2, 8]: 352 (41) ng/dL
- Cmax of androst-4-en-17β-ol-3-one, mean (±SD) [2, 8]: 822 (254) ng/dL
- Cavg of androst-4-en-17β-ol-3-one, mean (±SD) [2, 9]: 405 (148) ng/dL
- Cmax of androst-4-en-17β-ol-3-one, mean (±SD) [2, 9]: 930 (326) ng/dL
- Cavg of androst-4-en-17β-ol-3-one, mean (±SD) [2, 10]: 465 (201) ng/dL
- Cmax of androst-4-en-17β-ol-3-one, mean (±SD) [2, 10]: 1233 (695) ng/dL
